Measurements from PMC6433934, “Preclinical Evaluation of Bispecific Adaptor Molecule Controlled Folate Receptor CAR-T Cell Therapy With Special Focus on Pediatric Malignancies” (Frontiers in Oncology, 2019).

Tests used:
[1] = system: THP1-FRβ; test: AML study, intravenous xenografts, EC17 dosing regimens; format: in vivo, NSG mice
Description: (§1) All animal care and use were performed according to NIH guidelines and in compliance with protocols approved by the Purdue University Animal Use and Care Committee. Female 4 to 5-weeks-old NOD/SCID gamma (NSG™) mice (stock number: 005557) were purchased from The Jackson Laboratory (Bar Harbor, ME). Unless specifically indicated, all animals were maintained on a FA-deficient diet (TestDiet, St. Louis, MO) upon arrival and throughout the study. To establish subcutaneous xenografts, MDA-MB-231 and HOS-FRα were implanted in the right flank region at 2.5 × 10^6 and 1 × 10^6 cells per animal, respectively. For intravenous xenografts, THP1-FRβ cells were inoculated at 5 × 10^6 cells per animal. Subcutaneous tumors were measured 2–3 times per week with a caliper and calculated using the ellipsoidal formula (length x width^2)/2. […] All animal doses (CAR-T cells, EC17, sodium fluorescein) were given intravenously.
For AML studies, mice were intravenously infused with THP1-FRβ tumor cells 1 day prior to receiving a low dose of ~6 million E2-CAR-T cells (~23% EGFRt+). At ~3.5 days post CAR-T cell infusion, EC17 was dosed in 3 different ways including (i) SIW at 500 nmol/kg, (ii) thrice at 5/50/500 nmol/kg on Monday/Wednesday/Friday followed by a 9 day break in between cycles (TIW On/Off), and iii) as escalating doses of 5/10/100 nmol/kg in Cycle 1, 5/30/300 nmol/kg in Cycle 2, and 5/50/500 nmol/kg in Cycle 3, all on Monday/Thursday/Monday with a 6 day break in between cycles (M/Th/M, On/Off). On day 31, satellite animals were harvested for quantification of CAR-positive T cells identified in the mouse blood as human CD3ε+ EGFRt+ events and calculated as absolute numbers per 100 μL of whole blood. Upon euthanasia or at the end of study on day 38, total tumor load in THP1-FRβ tumor-bearing mice was assessed by measuring GFP+ tumor cells in the blood by flow cytometry and collecting liver weight (with metastatic lesions) and total weight of nonliver macrometastases found in the body cavities. Tumor fragments of liver metastases were enzymatically digested into single-cell suspensions and viable cell populations were analyzed for the status of CAR-T cell exhaustion using anti-human PD1, LAG3, and TIM3 (clones EH12.1, T47-530, and 7D3, respectively).
(§2) Depending on the CAR-T cell dose and how EC17 is administered, tumor-bearing mice receiving FITC-specific CAR-T cells can experience severe CRS and varying degrees of body weight loss ([27], [33], [34]). Therefore, we developed a CRS grading system (0–5 scale) to empirically assess CRS toxicity from animals' gross morphology and social behavior to allow for better timing of CRS rescue. While grades 0 and 5 indicated normal (no CRS) or death (due to severe CRS), respectively, grades 1, 2, and 3–4 were considered mild, light-to-moderate, and severe CRS. In addition, all EC17 doses were intentionally given toward the end of any given day to allow potential CRS symptoms to develop overnight. On the days immediately following each EC17 dose, animals were scored and rescue agents such as sodium fluorescein, folic acid and leucovorin were used to mitigate CRS toxicity ([33]). In this particular instance, a batch of E2-CAR-T cells with a high EGFRt+ CD4/CD8 ratio (~93:7) was given to HOS-FRα tumor-bearing mice at a mixture of ~2.5 million CD8 and ~33 million CD4 on day 0. When EC17 was dosed, respectively, at 500, 100, and 500 nmol/kg on days 3, 10, and 12, low CRS (grades 1–2) was noted on days 4 and 11 but high CRS (grade 3) was noted on day 13. To mitigate the severe CRS toxicity, sodium fluorescein was intravenously administrated at ~96 mg/kg in the morning of day 13 and mouse plasma samples were collected 6 h later for analysis of CRS-associated cytokines.

[2] = system: HOS-FRα tumors; test: Osteosarcoma study, subcutaneous xenografts, EC17 dose escalation; format: in vivo
Description: as §1
For osteosarcoma study, two cohorts of mice were subcutaneously implanted with HOS-FRα tumor cells 3 days prior to receiving ~6 million of the same CAR-T cell preparation used in the THP1-FRβ study. At ~3.5 days post CAR-T cell infusion, one cohort of mice was given up to 3 cycles of EC17 at 5/10/100 nmol/kg in Cycle 1, 5/30/300 nmol/kg in Cycle 2, and 5/50/500 nmol/kg in Cycle 3, all following the Monday/Thursday/Monday regimen with a 6 day break in-between cycles. At the end of study, circulating CD3ε+ EGFRt+ CAR-T cells per 100 μL of mouse blood were enumerated. HOS-FRα tumors (+/- EC17 treatment) were also harvested and digested for flow cytometric analysis of tumor-infiltrating CAR-T cells.
as §2, with “When EC17 was dosed, respectively, at 500, 100, and 500 nmol/kg on days 3, 10, and 12, low CRS (grades 1–2) was noted on days 4 and 11 but high CRS (grade 3) was noted on day 13. To mitigate the severe CRS toxicity, sodium fluorescein was intravenously administrated at ~96 mg/kg in the morning of day 13 and mouse plasma samples were collected 6 h later for analysis of CRS-associated cytokines.” left out

## Nc1nc2ncc(CNc3ccc(C(=O)NC(CCC(=O)NCCNC(=S)Nc4ccc(-c5c6ccc(=O)cc-6oc6cc(O)ccc56)c(C(=O)O)c4)C(=O)O)cc3)nc2c(=O)[nH]1 (centres unmarked) [EC17, FA-(γ)-ethylenediamine-FITC]
[1]; EC17 M/Th/M dose escalation at a slow pace per cycle
  non-liver macrometastases: failed to control
[1]; EC17 M/Th/M dose escalation, Cycle 2 after 300 nmol/kg, ~6 million E2-CAR-T cells
  CRS grade: 0–1
[1]; EC17 SIW 500 nmol/kg, Cycles 2 and 3, ~6 million E2-CAR-T cells
  CRS grade: 1–2
[1]; EC17 SIW and TIW at 10-fold dose escalation (on/off)
  non-liver macrometastases: successfully controlled
[1]; EC17 TIW 5/50/500 nmol/kg on/off, ~6 million E2-CAR-T cells
  CRS grade: 0–1
[1]; THP1-FRβ xenografts, EC17 plus E2-CAR-T cells
  cures: no cures
[1]; any of the 3 EC17 regimens vs controls, ~6 million E2-CAR-T cells
  circulating THP1-FRβ tumor cells in the blood: effectively reduced
[2]; EC17 M/Th/M escalation 5/10/100, 5/30/300, 5/50/500 nmol/kg, ~6 million E2-CAR-T cells
  safety (CRS, body weight): no CRS or body weight loss
[2]; EC17 M/Th/M escalation, within the first two cycles, ~6 million E2-CAR-T cells
  tumor growth: significant delay in tumor growth
[2]; HOS-FRα xenografts, EC17 plus E2-CAR-T cells
  cures: no cures
[2]; day 33, EC17-treated animals
  intratumoral CD3ε+ EGFRt+ CAR-T cell population: ~ 1 % total viable digested tumor-derived cells
